Key:
[1] = H2S release from SA/JK-1 sponge at varied pH; conditions: pH 6.0
[2] = H2S release kinetics from PCL-JK-1 fibrous scaffold, modified Methylene Blue method; conditions: pH 6.0, PBS; PCL-JK-1 with 10% JK-1, JK-1 in solution as control (FIG. 4B)

Compound: O=C([O-])CNP([O-])(=S)c1ccccc1.[Li+].[Li+] (centres unmarked) [JK-1]
- time to H2S peak concentration [1]: ≤ 55 min
- time to H2S peak concentration [2]: ≤ 10 min

— patent US10456410B2, “Hydrogen sulfide (H2S) releasing donor compound for dermal wound regeneration” (University of South Carolina, priority 2017, dated 2019)
